Measured values from publication PMC6247689, “Determination of the volatile and polyphenol constituents and the antimicrobial, antioxidant, and tyrosinase inhibitory activities of the bioactive compounds from the by-product of Rosa rugosa Thunb. var. plena Regal tea” (BMC Complementary and Alternative Medicine, 2018).
In brackets after ≈: the same amount, converted by molar mass. Like-named read-outs stand apart in the source and are kept apart here.

Legend:
[1] = tested on: candida albicans (ATCC 10231); test: MIC and MFC, broth microdilution; format: cell-based; settings: C. albicans; for MIC: 37 °C, 24 h
Experimental: (§1) The antimicrobial activity was measured by the method described by Xue. All standard strains were obtained from the Guangdong Microbiology Culture Center (Guangzhou, China). Listeria ivanovii (ATCC 19119) was cultured in BHI, Salmonella enteritidis enteritidis (ATCC 14028) Staphylococcus aureus (ATCC 25923) and Escherichia coli (ATCC 25922) were cultured in nutrient agar (NA) for 24 h and at 37 °C. candida albicans (ATCC 10231) was cultured in PHB at 37 °C for 24 h. Propionibacterium acnes (ATCC 6919) and Fusobacterium nucleatum (ATCC 10953) were cultured in CDC agar at 37 °C for 48 h in a YQX-II anaerobic incubator (Shanghai, China). The final cell counts in l mL of broth were approximately 10^6 colony-forming units (CFU/mL). A 10 mg/mL solution of miconazole nitrate and hydrochloride tetracycline in water was used as a positive control against fungi and bacteria, respectly.
(§2) The MIC and MBC or MFC values were determined as described previously by Xue. Briefly, 100 μL dilutions (approximately 100,000 CFU/mL) of Staphylococcus aureus, Escherichia coli, Salmonella enteritidis enteritidis, Fusobacterium nucleatum, and Candida albicans in nutrient broth and Listeria ivanovii and Propionibacterium acnes in GMA broth were inoculated into microtiter plates. Then, 100 μL aliquots of the solutions of the test compound were added after a two-fold serial dilution with nutrient broth (from 2 mg/mL to 3 μg/mL). Broths with 5% (v/v) DMSO were used as controls. The petri dishes were incubated at 37 °C for 24 h with the exception of Propionibacterium acnes and Fusobacterium nucleatum, which were incubated at 37 °C for 48 h. The MIC was recorded as the lowest concentration of sample showing no detectable growth. To determine the MBC or MFC values for no bacterial or fungus growth, 10 μL of sub-inhibitory concentrations of the test compounds were incubated on CDC or GMA agar plates for 24 or 48 h. Every determination was carried out in triplicate.

[2] = DPPH radical scavenging activity; settings: 30 min in the dark, 517 nm; positive control = ascorbic acid
Experimental: The antioxidant activity of RFCS and the standards were evaluated by DPPH radical scavenging activity using a slightly modified version of a previously reported method. […] Aliquots (100 μL) of the supernatants were transferred into a 96-well microplate, and the absorbance of each was recorded at 517 nm using a Spectramax Plus384 UV-Vis spectrophotometer (Molecular Devices, Sunnyvale, California, USA). […] The IC50 values, which represent the concentrations of rose samples and standard substance at which 50% of the DPPH radical was inhibited, were determined. The tests were performed in triplicate, and the percentage of DPPH scavenging was calculated using the following equation. Inhibition%=H0-H/H0×100 H:Absorbance of RFCS and the standards;H0:Absorbance of the blank

ABTS radical scavenging = settings: 30 °C, 30 min; positive control = Trolox
Experimental: The ABTS assay of RFCS was performed according to a modified version of a previously reported method. Briefly, the stock solutions were generated by mixing equal quantities of 7.4 mM ABTS^●+ solution and 2.6 mM potassium persulfate solution, and the mixture was incubated at room temperature for 12 h in the dark. Then, the solution was equilibrated with 1 mL of ABTS^●+ solution with 50% ethanol serving as a positive control. The absorbance of the solution at 734 nm was 1.17 ± 0.02 units. […] The mixture was mixed vigorously and incubated at 30 °C for 30 min. The absorbance was then measured at […] using the spectrophotometer. […] Inhibition%=Absorbance of blank-Absorbance of sample/Absorbance of blank×100

mushroom tyrosinase = test: Tyrosinase inhibitory activity (spectrophotometric, DOPA substrate); format: biochemical; settings: pH 6.8, 37 °C, 15 min, positive control = kojic acid
Experimental: The reaction mixture was vortexed and maintained at 37 °C for 15 min, and then the absorption maximum of dopachrome (set at 479 nm) was measured using a microplate reader (Molecular Devices, Sunnyvale, California, USA). The tests were performed in triplicate, and the value of tyrosinase inhibition activity was calculated as described above.

[3] = tested on: Escherichia coli (ATCC 25922); test: MIC and MBC, broth microdilution; format: cell-based; settings: E. coli; for MIC: 37 °C, 24 h
Experimental: as §1, §2

[4] = tested on: Listeria ivanovii (ATCC 19119); test: MIC and MBC, broth microdilution; format: cell-based; settings: L. ivanovii; for MIC: 37 °C, 24 h
Experimental: as §1, §2

[5] = tested on: Salmonella enteritidis enteritidis (ATCC 14028); test: MIC and MBC, broth microdilution; format: cell-based; settings: S. enteritidis enteritidis; for MIC: 37 °C, 24 h
Experimental: as §1, §2

[6] = tested on: Fusobacterium nucleatum (ATCC 10953); test: MIC and MBC, broth microdilution; format: cell-based; settings: F. nucleatum; for MIC: anaerobic, 37 °C, 48 h
Experimental: as §1, §2

[7] = tested on: Staphylococcus aureus (ATCC 25923); test: MIC and MBC, broth microdilution; format: cell-based; settings: S. aureus; for MIC: 37 °C, 24 h
Experimental: as §1, §2

[8] = tested on: Propionibacterium acnes (ATCC 6919); test: MIC and MBC, broth microdilution; format: cell-based; settings: P. acnes; for MIC: anaerobic, 37 °C, 48 h
Experimental: as §1, §2

[9] = Candida albicans, ATCC10231, read-out: MIC
[10] = Candida albicans, ATCC10231, read-out: MFC
[11] = Escherichia coli, ATCC25922, read-out: MIC
[12] = Escherichia coli, ATCC25922, read-out: MBC
[13] = Listeria ivanovii, ATCC19119, read-out: MIC
[14] = Listeria ivanovii, ATCC19119, read-out: MBC
[15] = Salmonella enterica, read-out: MIC
[16] = Salmonella enterica, read-out: MBC
[17] = Fusobacterium nucleatum, ATCC10953, read-out: MIC
[18] = Fusobacterium nucleatum, ATCC10953, read-out: MBC
[19] = Staphylococcus aureus, ATCC25923, read-out: MIC
[20] = Staphylococcus aureus, ATCC25923, read-out: MBC
[21] = Cutibacterium acnes, ATCC6919, read-out: MIC
[22] = Cutibacterium acnes, ATCC6919, read-out: MBC

Compound	MIC [1, 9]	DPPH radical scavenging activity IC50 [2]	ABTS radical scavenging activity IC50 (ABTS radical scavenging)	Tyrosinase inhibition IC50 (mushroom tyrosinase)	MIC [3, 11]	MIC [4, 13]	MIC [5, 15]	MIC [6, 17]	MIC [7, 19]	MIC [8, 21]	MFC [1, 10]	MBC [3, 12]	MBC [4, 14]	MBC [5, 16]	MBC [6, 18]	MBC [7, 20]	MBC [8, 22]	other results
Kaempferol-3-O-Rutinoside		0.808 ± 0.024 c μg/mL	0.719 ± 0.016 c μg/mL	0.908 ± 0.021 µg/mL														MFC [1]: 1000 µg/mL; MIC [1]: 250 µg/mL; Tyrosinase inhibition IC50 (mushroom tyrosinase; listed as kaempferol-3-O-rutinosid): < 1 µg/mL; MBC [3]: > 1000 µg/mL; MIC [3]: 500 µg/mL; MBC [4]: 1000 µg/mL; MIC [4]: 500 µg/mL; MBC [5]: > 1000 µg/mL; MIC [5]: 500 µg/mL; MBC [6]: > 1000 µg/mL; MIC [6]: 500 µg/mL; MBC [7]: 1000 µg/mL; MIC [7]: 250 µg/mL; MBC [8]: 1000 µg/mL; MIC [8]: 500 µg/mL
Clc1ccc(COC(Cn2ccnc2)c2ccc(Cl)cc2Cl)c(Cl)c1 (stereo not shown) [Miconazole Nitrate]	8 µg/mL											16 µg/mL						
O=c1cc(-c2ccc(O)c(O)c2)oc2cc(O)cc(O)c12 [Luteolin]		0.507 ± 0.015 c μg/mL	0.436 ± 0.026 c μg/mL	0.613 ± 0.016 µg/mL		500 µg/mL (≈ 1750 µM)		125 µg/mL (≈ 437 µM)	500 µg/mL (≈ 1750 µM)		500 µg/mL (≈ 1750 µM)	1000 µg/mL (≈ 3490 µM)	1000 µg/mL (≈ 3490 µM)		500 µg/mL (≈ 1750 µM)	> 1000 µg/mL	500 µg/mL (≈ 1750 µM)	
CN(C)[C@@H]1C(=O)C(C(N)=O)=C(O)[C@@]2(O)C(=O)C3=C(O)c4c(O)cccc4[C@@](C)(O)[C@H]3C[C@@H]12.Cl [Hydrochloride tetracycline]																		MBC [4]: < 0.1 µg/mL; MIC [4]: < 0.1 µg/mL; MIC [5]: 8 µg/mL; MBC [6]: 2 µg/mL; MIC [6]: 2 µg/mL; MIC [8]: 8 µg/mL
O=c1c(O[C@@H]2O[C@H](CO)[C@H](O)[C@H](O)[C@H]2O)c(-c2ccc(O)c(O)c2)oc2cc(O)cc(O)c12 [Hyperoside]	250 µg/mL (≈ 538 µM)	0.695 ± 0.021 c μg/mL	0.526 ± 0.014 c μg/mL	0.762 ± 0.018 µg/mL	250 µg/mL (≈ 538 µM)	250 µg/mL (≈ 538 µM)	250 µg/mL (≈ 538 µM)	250 µg/mL (≈ 538 µM)	250 µg/mL (≈ 538 µM)	250 µg/mL (≈ 538 µM)	1000 µg/mL (≈ 2150 µM)	1000 µg/mL (≈ 2150 µM)	500 µg/mL (≈ 1080 µM)	500 µg/mL (≈ 1080 µM)	500 µg/mL (≈ 1080 µM)	1000 µg/mL (≈ 2150 µM)	1000 µg/mL (≈ 2150 µM)	Tyrosinase inhibition IC50 (mushroom tyrosinase; listed as hyperoside): < 1 µg/mL

The next lines start with results.

MIC [1, 9]	DPPH radical scavenging activity IC50 [2]	ABTS radical scavenging activity IC50 (ABTS radical scavenging)	Tyrosinase inhibition IC50 (mushroom tyrosinase)	MIC [3, 11]	MIC [4, 13]	MIC [5, 15]	MIC [6, 17]	MIC [7, 19]	MIC [8, 21]	Compound	MFC [1, 10]	MBC [3, 12]	MBC [4, 14]	MBC [5, 16]	MBC [6, 18]	MBC [7, 20]	MBC [8, 22]	other results
250 µg/mL (≈ 1620 µM)	> 10,000 a μg/mL	> 10,000 a μg/mL	730 ± 44 a μg/mL	250 µg/mL (≈ 1620 µM)	500 µg/mL (≈ 3240 µM)	500 µg/mL (≈ 3240 µM)	250 µg/mL (≈ 1620 µM)	250 µg/mL (≈ 1620 µM)	250 µg/mL (≈ 1620 µM)	C=CC(C)(O)CCC=C(C)C (stereo not shown) [Linalool]	1000 µg/mL (≈ 6480 µM)	1000 µg/mL (≈ 6480 µM)	> 1000 µg/mL	> 1000 µg/mL	1000 µg/mL (≈ 6480 µM)	1000 µg/mL (≈ 6480 µM)	1000 µg/mL (≈ 6480 µM)	
250 µg/mL (≈ 1600 µM)	> 10000a μg/mL	> 10,000 a μg/mL	825 ± 31 a μg/mL	250 µg/mL (≈ 1600 µM)	250 µg/mL (≈ 1600 µM)	250 µg/mL (≈ 1600 µM)	250 µg/mL (≈ 1600 µM)	125 µg/mL (≈ 800 µM)	125 µg/mL (≈ 800 µM)	CC(C)=CCCC(C)CCO (stereo not shown) [Citronellol]	500 µg/mL (≈ 3200 µM)	500 µg/mL (≈ 3200 µM)	500 µg/mL (≈ 3200 µM)	1000 µg/mL (≈ 6400 µM)	1000 µg/mL (≈ 6400 µM)	500 µg/mL (≈ 3200 µM)	500 µg/mL (≈ 3200 µM)	
250 µg/mL (≈ 2050 µM)	> 10,000 a μg/mL	> 10,000 a μg/mL	315 ± 13 b μg/mL	250 µg/mL (≈ 2050 µM)	250 µg/mL (≈ 2050 µM)	125 µg/mL (≈ 1020 µM)	8 µg/mL (≈ 65.5 µM)	125 µg/mL (≈ 1020 µM)	125 µg/mL (≈ 1020 µM)	OCCc1ccccc1 [Phenylethyl alcohol]	500 µg/mL (≈ 4090 µM)	1000 µg/mL (≈ 8190 µM)	500 µg/mL (≈ 4090 µM)	500 µg/mL (≈ 4090 µM)	32 µg/mL (≈ 262 µM)	250 µg/mL (≈ 2050 µM)	500 µg/mL (≈ 4090 µM)	
1000 µg/mL (≈ 4500 µM)	> 10,000 a μg/mL	> 10,000 a μg/mL	635 ± 22 a μg/mL	500 µg/mL (≈ 2250 µM)	8 µg/mL (≈ 36 µM)	500 µg/mL (≈ 2250 µM)	8 µg/mL (≈ 36 µM)	250 µg/mL (≈ 1120 µM)	125 µg/mL (≈ 562 µM)	CC(C)=CCC[C@](C)(O)[C@@H]1CC=C(C)CC1 [α-bisabolol]	> 1000 µg/mL	1000 µg/mL (≈ 4500 µM)	32 µg/mL (≈ 144 µM)	> 1000 µg/mL	32 µg/mL (≈ 144 µM)	1000 µg/mL (≈ 4500 µM)	500 µg/mL (≈ 2250 µM)	
500 µg/mL (≈ 819 µM)	0.715 ± 0.017 c μg/mL	0.621 ± 0.024 c μg/mL	0.856 ± 0.014 µg/mL	250 µg/mL (≈ 409 µM)	500 µg/mL (≈ 819 µM)	125 µg/mL (≈ 205 µM)	62 µg/mL (≈ 102 µM)	250 µg/mL (≈ 409 µM)	125 µg/mL (≈ 205 µM)	C[C@@H]1O[C@@H](OC[C@H]2O[C@@H](Oc3c(-c4ccc(O)c(O)c4)oc4cc(O)cc(O)c4c3=O)[C@H](O)[C@@H](O)[C@@H]2O)[C@H](O)[C@H](O)[C@H]1O [Rutin]	1000 µg/mL (≈ 1640 µM)	1000 µg/mL (≈ 1640 µM)	1000 µg/mL (≈ 1640 µM)	500 µg/mL (≈ 819 µM)	500 µg/mL (≈ 819 µM)	500 µg/mL (≈ 819 µM)	250 µg/mL (≈ 409 µM)	Tyrosinase inhibition IC50 (mushroom tyrosinase; listed as rutin): < 1 µg/mL
